Source: ChEMBL document CHEMBL4390696, “Orientation preferences of hairpin pyrrole-imidazole polyamides toward mCGG site” (Bioorg Med Chem, 2019)

Tests used:
[1] = Binding affinity to 5'-ATmCGGAT-3' DNA (unknown origin) in reverse orientation assessed as change in melting temperature at 5 uM by UV-vis spectrophotometry
[2] = Binding affinity to 5'-ATGGmCAT-3' DNA (unknown origin) in reverse orientation assessed as change in melting temperature at 5 uM by UV-vis spectrophotometry
[3] = Orientation preference, ratio of change in melting temperature of forward binding site of 5'-ATmCGGAT-3' DNA (unknown origin) to sum of change in melting temperature of forward binding site and change in melting temperature of reverse binding site for 5'-ATmCGGAT-3' DNA (unknown origin)
[4] = Binding affinity to 5'-ATmCGGAT-3' DNA (unknown origin) assessed as association constant incubated for 180 secs by SPR analysis
[5] = Binding affinity to 5'-ATCGGAT-3' DNA (unknown origin) assessed as association constant incubated for 180 secs by SPR analysis
[6] = Binding affinity to 5'-ATmCGGAT-3' DNA (unknown origin) assessed as dissociation rate constant incubated for 180 secs by SPR analysis
[7] = Binding affinity to 5'-ATCGGAT-3' DNA (unknown origin) assessed as dissociation rate constant incubated for 180 secs by SPR analysis
[8] = Binding preference index, ratio of Kd for 5'-ATmCGGAT-3' DNA (unknown origin) to Kd for 5'-ATCGGAT-3' DNA (unknown origin)
[9] = Binding affinity to mCGG containing DNA assessed as inhibition of mouse TET1 catalytic domain binding to methylated 18 bp DNAs assessed as reduction in TET1-methylated DNA complex formation incubated for 30 mins by electrophoretic mobility shift assay
[10] = Binding affinity to 5'-ATmCGGAT-3' DNA (unknown origin) assessed as dissociation constant incubated for 180 secs by SPR analysis
[11] = Binding affinity to 5'-ATCGGAT-3' DNA (unknown origin) assessed as dissociation constant incubated for 180 secs by SPR analysis
[12] = Binding affinity to 5'-ATmCGGAT-3' DNA (unknown origin) in forward orientation assessed as change in melting temperature at 5 uM by UV-vis spectrophotometry
[13] = Binding affinity to 5'-ATGGmCAT-3' DNA (unknown origin) in forward orientation assessed as change in melting temperature at 5 uM by UV-vis spectrophotometry
[14] = Orientation preference, ratio of change in melting temperature of forward binding site of 5'-ATGGmCAT-3' DNA (unknown origin) to sum of change in melting temperature of forward binding site and change in melting temperature of reverse binding site for 5'-ATGGmCAT-3' DNA (unknown origin)

ΔTm [1] | ΔTm [2] | Ratio [3] | Ka [4] | Ka [5] | Dissociation rate constant (koff) [6] | Dissociation rate constant (koff) [7] | Ratio [8] | IC50 ([9]; read-out: IC50) | Kd [10] | Kd [11] | IC50 [9] | ΔTm [12] | ΔTm [13] | Ratio [14] | Structure (SMILES)
20.8 °C | 13.3 °C | 0.39 | 2.5 ×10⁶ /M/s | 2.4 ×10⁶ /M/s | 5.8 ×10⁻³ /s | 8.6 ×10⁻³ /s | 1.1 | 0.12 µM | 0.0023 µM | 0.0036 µM |  |  |  |  | CC(=O)Nc1cc(C(=O)Nc2cn(C)c(C(=O)NCCC(=O)Nc3cc(C(=O)NCC[C@H](N)C(=O)Nc4cn(C)c(C(=O)Nc5cn(C)c(C(=O)NCCC(=O)Nc6cc(C(=O)NCCC(=O)NCCCN(C)C)n(C)c6)n5)n4)n(C)c3)n2)n(C)c1
3.3 °C | 13.1 °C | 0.2 | 3.1 ×10⁴ /M/s | 3.6 ×10⁴ /M/s | 1.5 ×10⁻² /s | 1.9 ×10⁻² /s | 0.9 |  | 0.48 µM | 0.53 µM |  |  |  |  | CC(=O)Nc1cc(C(=O)NCCC(=O)Nc2cn(C)c(C(=O)Nc3cc(C(=O)NCCCC(=O)Nc4cc(C(=O)Nc5cc(C(=O)Nc6cn(C)c(C(=O)Nc7cn(C)c(C(=O)NCCC(=O)NCCCN(C)C)n7)n6)n(C)c5)n(C)c4)n(C)c3)n2)n(C)c1
1.6 °C | 6.7 °C | 0.19 |  |  |  |  |  | 2.56 µM |  |  |  |  |  |  | CC(=O)Nc1cc(C(=O)Nc2cc(C(=O)Nc3cn(C)c(C(=O)Nc4cc(C(=O)NCCCC(=O)Nc5cc(C(=O)Nc6cc(C(=O)Nc7cn(C)c(C(=O)Nc8cn(C)c(C(=O)NCCC(=O)NCCCN(C)C)n8)n7)n(C)c6)n(C)c5)n(C)c4)n3)n(C)c2)n(C)c1
 |  |  | 4.3 ×10³ /M/s | 1.2 ×10⁴ /M/s | 2.6 ×10⁻⁴ /s | 5.9 ×10⁻⁴ /s | 1.3 |  | 0.061 µM | 0.048 µM | Not Active | 1.4 °C | 21.5 °C | 0.94 | CC(=O)Nc1cc(C(=O)Nc2cn(C)c(C(=O)Nc3cc(C(=O)Nc4cc(C(=O)NCCCC(=O)Nc5cn(C)c(C(=O)Nc6cn(C)c(C(=O)Nc7cc(C(=O)Nc8cc(C(=O)NCCC(=O)NCCCN(C)C)n(C)c8)n(C)c7)n6)n5)n(C)c4)n(C)c3)n2)n(C)c1
 |  |  | 3.2 ×10⁵ /M/s | 8.2 ×10⁵ /M/s | 2 ×10⁻¹ /s | 1.2 ×10⁻¹ /s | 4.1 |  | 0.61 µM | 0.15 µM |  | 10.8 °C | 12.5 °C | 0.54 | CC(=O)Nc1cc(C(=O)Nc2cn(C)c(C(=O)NCCC(=O)Nc3cc(C(=O)NCCCC(=O)Nc4cn(C)c(C(=O)Nc5cn(C)c(C(=O)Nc6cc(C(=O)Nc7cc(C(=O)NCCC(=O)NCCCN(C)C)n(C)c7)n(C)c6)n5)n4)n(C)c3)n2)n(C)c1
 |  |  | 1.2 ×10⁶ /M/s | 9.7 ×10⁵ /M/s | 1.6 ×10⁻¹ /s | 1.5 ×10⁻¹ /s | 0.9 |  | 0.13 µM | 0.15 µM |  | 7.6 °C | 10.9 °C | 0.59 | CC(=O)Nc1cc(C(=O)Nc2cn(C)c(C(=O)Nc3cc(C(=O)Nc4cc(C(=O)NCCCC(=O)Nc5cn(C)c(C(=O)Nc6cn(C)c(C(=O)NCCC(=O)Nc7cc(C(=O)NCCC(=O)NCCCN(C)C)n(C)c7)n6)n5)n(C)c4)n(C)c3)n2)n(C)c1
18.1 °C | 8.6 °C | 0.32 | 1.1 ×10⁶ /M/s | 1.4 ×10⁶ /M/s | 3.2 ×10⁻³ /s | 2.4 ×10⁻³ /s | 1.6 |  | 0.0028 µM | 0.0017 µM |  |  |  |  | CC(=O)Nc1cc(C(=O)Nc2cn(C)c(C(=O)NCCC(=O)Nc3cc(C(=O)NCCCC(=O)Nc4cn(C)c(C(=O)Nc5cn(C)c(C(=O)NCCC(=O)Nc6cc(C(=O)NCCC(=O)NCCCN(C)C)n(C)c6)n5)n4)n(C)c3)n2)n(C)c1
5.9 °C | 14.8 °C | 0.29 | 5.1 ×10⁵ /M/s | 5.2 ×10⁵ /M/s | 2.3 ×10⁻² /s | 1.1 ×10⁻² /s | 2.2 |  | 0.046 µM | 0.021 µM |  |  |  |  | CC(=O)Nc1cc(C(=O)Nc2cc(C(=O)Nc3cn(C)c(C(=O)Nc4cc(C(=O)NCCCC(=O)Nc5cc(C(=O)NCCC(=O)Nc6cn(C)c(C(=O)Nc7cn(C)c(C(=O)NCCC(=O)NCCCN(C)C)n7)n6)n(C)c5)n(C)c4)n3)n(C)c2)n(C)c1
11.8 °C | 16.2 °C | 0.42 | 7.4 ×10⁶ /M/s | 9 ×10⁶ /M/s | 6.6 ×10⁻² /s | 8.9 ×10⁻² /s | 0.9 |  | 0.0089 µM | 0.0098 µM |  |  |  |  | CC(=O)Nc1cc(C(=O)NCCC(=O)Nc2cn(C)c(C(=O)Nc3cc(C(=O)NCCCC(=O)Nc4cc(C(=O)NCCC(=O)Nc5cn(C)c(C(=O)Nc6cn(C)c(C(=O)NCCC(=O)NCCCN(C)C)n6)n5)n(C)c4)n(C)c3)n2)n(C)c1
16 °C | 17.9 °C | 0.47 | 3.2 ×10⁶ /M/s | 4.2 ×10⁶ /M/s | 5.3 ×10⁻³ /s | 7.2 ×10⁻³ /s | 1 | 0.17 µM | 0.0017 µM | 0.0017 µM |  |  |  |  | CC(=O)Nc1cc(C(=O)NCCC(=O)Nc2cn(C)c(C(=O)Nc3cc(C(=O)NCC[C@@H](N)C(=O)Nc4cc(C(=O)NCCC(=O)Nc5cn(C)c(C(=O)Nc6cn(C)c(C(=O)NCCC(=O)NCCCN(C)C)n6)n5)n(C)c4)n(C)c3)n2)n(C)c1
